Measurements published in patent publication US12269808B2, “Amino dithioperacid thioester compound, preparation method therefor, and use thereof” (FUDAN UNIVERSITY, priority 2019, dated 2025).

Key:
[1] = tested on: mouse myoblasts (C2C12) myotubes; assay: C2C12 myotube atrophy induced by C26 cell culture medium (HE staining, myotube diameter); type: cell-based; conditions: for Myotube atrophy reversal rate (%): 48 h
From the text: Carbamo(dithioperoxo)thioate analogs alleviate mouse myoblasts (C2C12) atrophy induced by mouse colon cancer cell (C26).
The diameter measurement method was used to evaluate the diameter of myotubes differentiated from mouse myoblasts (C2C12). The staining method used in the experiment was hematoxylin-eosin staining, referred to as HE staining. The hematoxylin stain is alkaline, positively charged, and easily binds to negatively charged and acidic deoxyribonucleic acid (DNA) in the nucleus with ionic bonding to show blue; while eosin is an acidic dye that dissociates into negatively charged anions in water and easily binds to the positively charged amino groups of proteins in the cytoplasm to show red. The stained cells were placed under a high-magnification microscope to take photos (magnification power: 400), and the diameter of myotubes could be counted using image J software.
The above method allows to evaluate the effect of the drug on the muscle atrophy cell model. The specific method is as follows.
C2C12 cells were seeded in 24-well plates in a culture medium of high-glucose DMEM medium containing 10% FBS and 1% P/S, and placed in a 5% CO2, 37° C. environment. When the cell density reaches 50%˜60%, the culture medium was changed into 2% HS differentiation medium (high-glucose DMEM medium containing 2% HS and 1% P/S); the differentiation medium was changed every 48 h until mature on day 5 or day 6. In addition, C26 cells were inoculated in T75 flasks, and the culture medium was changed into high-glucose DMEM medium containing 10% FBS and 1% P/S, and placed in a 5% CO2, 37° C. environment. While C26 cells (6×10^6 cells/flasks) were passaged, add 20 mL of culture medium to sequentially subculture for 48 h. To obtain the C26 supernatant, centrifuge C26 culture medium at 1000 rpm for 3 min and then at 4000 rpm for 10 min successively. The C26 supermatant and 2% HS differentiation medium were mixed 1:1 (volume ratio) as a muscle atrophy inducing medium. Except for the control group with 2% HS differentiation medium, other each group was added with the equal amounts of muscle atrophy-inducing medium and one group was used as the model group, and the rest groups were used as the experimental groups for drug administration. At the same time, carbamo(dithioperoxo)thioate compounds were added into the cells at the following gradient concentrations.
Wherein, the serial numbers correspond to the numbers of the accompanying figures, that is, FIG. 1-46 correspond to the samples of serial numbers 1-46 in Table 1. μM refers to μmol/L.
Myotube diameter was measured as follows.
After 48 h of action, the myotubes were fixed with fixative solution (anhydrous ethanol:formaldehyde:glacial acetic acid volume ratio=20:2:1) for more than 1 h, stained using hematoxylin-eosin staining method, and placed under a high-magnification microscope to acquire images and counted the diameter of myotubes using image J. The muscle atrophy reversal rate was calculated according to the following equation. Muscle atrophy reversal rate=(Average value of myotubes in drug administration group−Average value of myotubes in model group)/(Average value of myotubes in control group−Average value of myotubes in model group)×100%

3T3-L1 adipocytes = assay: 3T3-L1 adipocyte lipolysis induced by C26 medium (glycerol assay); type: cell-based, mouse; conditions: for glycerol content: 48 h, control 287.44 μM, model 441.95 μM
From the text: Experimental results of compound 4 alleviating 3T3-L1 adipocytes lipolysis.
Glycerol assay was used to evaluate intracellular lipid content. Glycerol kinase phosphorylates glycerol to glycerol 3-phosphate; glycerol 3-phosphate is oxidized by glycerophosphate oxidase to produce hydrogen peroxide; the chromogenic substrate is converted to benzoquinone imine in the presence of peroxidase, and its optical density value is proportional to the glycerol concentration.
The above methods allow to evaluate the effect of drugs on the fat lipolysis cell model. The methods are as follows:
3T3-L1 cells were seeded in 6-well plates in a culture medium (high-glucose DMEM medium containing 10% FBS and 1% P/S) and placed in a 5% CO2, 37° C. environment. The cells were allowed to grow to 100% confluence and continued to fuse for 3 days to start the differentiation operation. The culture medium for the first differentiation was high-glucose DMEM medium containing 0.5 mM IBMX, […], 1 μM dexamethasone and 10% FBS and 1% P/S, and then differentiated 3T3-L1 adipocytes for 72 h; The culture medium for the second differentiation was high-glucose DMEM medium containing […] and 10% FBS, and 1% P/S, and then differentiated 3T3-L1 adipocytes for 72 h; the culture medium for the third differentiation was high-glucose DMEM medium containing 10% FBS, and 1% P/S, and then differentiated 3T3-L1 for 72 h; After successful differentiation, it was obvious that there were a large number of oil droplets in the cells. In addition, C26 cells were inoculated in T75 flasks in the culture medium (high-glucose DMEM medium containing 10% FBS, and 1% P/S) and placed in a 5% CO2, 37° C. environment. While C26 cells (6×10^6 cells/flask) were passaged, add 15 mL of phenol red-free high-glucose DMEM culture medium to the T75 flask with 100% confluent C26 cells and sequentially subculture for 48 h. To obtain the supernatant, centrifuge C26 culture medium at 1000 rpm for 3 min and at 4000 rpm for 10 min successively, and take the supernatant to obtain the C26 supernatant successively. The C26 supernatant was mixed with phenol red-free high-glucose DMEM medium at 1:1 ratio as a fat lipolysis-inducing medium. Except for the control group with phenol red-free high-glucose DMEM medium, the other each group was added with the same amount of fat lipolysis-inducing liquid; one group was used as the model group, and the rest groups were used as the experimental groups for drug administration. At the same time, compound 4 stock solution was also added into the cells at the following concentrations of 12.5 μM, 25 μM, 50 μM, 100 μM.
The glycerol detection method was performed as follows: after 48 h of action, the glycerol content in the supernatant was detected using the glycerol detection kit from Beijing Applygen Gene Technology Co., Ltd.

[2] = tested on: BALB/c mice bearing C26 tumors; assay: C26 tumor cancer cachexia animal model; type: in vivo, mouse; conditions: 5 mg/kg oral gavage (i.g)
Protocol: The experimental results of cancer cachexia animal models treated with compound 4, by the following methods.
C26 cells were cultured in T75 culture flasks in the culture medium (RPMI-1640 medium containing 10% FBS, and P/S) and placed in a 5% CO2, 37° C. environment. The cells were harvested by centrifugation at 1000 rpm for 3 min, and washed with ice-cold PBS buffer to remove the remaining culture medium and prepared into a cell suspension of 1×10^7 cells/mL. The cell suspension was inoculated into the left and right armpits of BALB/c mice with 1×10^6 cells/mouse for subsequent inoculation. When the tumor volume increased to about […], the tumor was removed and homogenized at 3.5 mL of ice-old saline/g to obtain tumor tissue suspension. The mice to be inoculated were grouped according to their body weight, and the cell suspension was inoculated into the left armpit of BALB/c mice at the amount of 100 μL/mouse. The administration of the drug was started the day after inoculation. Compound 4 was first dissolved in DMSO and then mixed with pre-warmed PBS solution (37° C.) to form a homogeneous and stable solution at a final concentration of 1 mg/mL (3% DMSO+2% anhydrous ethanol+1% polyoxyethylene castor oil). The dose was 5 mg/kg and the route of administration was oral gavage (i.g). The body weight, body temperature, tumor size and food intake of the mice were monitored daily. The mice in the model group were considered to be in the advanced stage of cachexia when they were about 10% weight loss after 16 days. The muscle grip of mice's limbs was measured, and samples of gastrocnemius muscle, epididymal fat and tumor were obtained after the mice were executed by […] and the tissue samples were weighed.
The measurement method of the muscle grasping force is as follows: The researcher holds the mouse steadily with his right hand, puts the mouse on the “YLS-13A rat and mouse grasping force measuring instrument” to let the forelimbs of mouse firmly grasp the grasping plate and uses his left hand to stabilize the grasping plate. To measure the muscle grasping force of the mouse, the researcher slowly releases his left hand from the grasping plate and immediately uses his right hand to pull the mouse's tail backward slowly until the forelimbs are free from the grasping plate. Each mouse is repeated 8 times, and the average value of the 8 times is used as the skeletal muscle strength index of each mouse.
Results and Conclusions: Referring to FIGS. 48 to 58, the three curves in the figures represent the healthy group, the C26 tumor model group and the dosing group (compound 4 group, where compound 4 was administrated at a dose of 5 mg/kg), respectively.

[3] = 25 μM, C26 medium-induced C2C12 myotubes
[4] = 50 μM, C26 medium-induced C2C12 myotubes
[5] = l00 μM, C26 medium-induced C2C12 myotubes
[6] = 12.5 μM, C26 medium-induced C2C12 myotubes
[7] = vs C26 tumor model group, p<0.05

| SMILES | Myotube atrophy reversal rate (%) [1, 3] | Myotube atrophy reversal rate (%) [1, 4] | Myotube atrophy reversal rate (%) [1, 5] | further results |
| --- | --- | --- | --- | --- |
| CCCCCCCCSSC(=S)N1CCCC1 [Compound 1] | 18.39% | 2.51% | 36.26% | – |
| CCCCCCCCCCSSC(=S)N1CCCC1 [Compound 2] | 43.90% (25 μM) | 61.05% (50 μM) | – | Myotube atrophy reversal rate (%) [1, 6]: 16.94% |
| CCCCCCCCCCCSSC(=S)N1CCCC1 [Compound 3] | 35.76% | 33.40% | 46.11% | – |
| CCCCCCCCCCCCSSC(=S)N1CCCC1 [Compound 4] | – | – | – | Myotube atrophy reversal rate (%) ([1]; 3.125 μM, C26 medium-induced C2C12 myotubes): 37.78%; Myotube atrophy reversal rate (%) ([1]; 6.25 μM, C26 medium-induced C2C12 myotubes): 54.53%; cytotoxicity (in words) ([1]; 12.5 μM): non-cytotoxic; Myotube atrophy reversal rate (%) [1, 6]: 92.83%; Myotube atrophy reversal rate (%) ([1]; 12.5 μM, C26 medium-induced C2C12 myotubes, listed as compound 4): 92.83%; glycerol content (3T3-L1 adipocytes; 12.5 μM compound): 379.44 µM; glycerol content (3T3-L1 adipocytes; 25 μM compound): 347.14 µM; glycerol content (3T3-L1 adipocytes; 50 μM compound): 313.67 µM; glycerol content (3T3-L1 adipocytes; 100 μM compound): 310.95 µM; glycerol released from 3T3-L1 mature adipocytes (in words) (3T3-L1 adipocytes; 12.5-100 μM, C26 cell culture medium induced): concentration-dependent reduction; cancer cachexia symptoms (weight loss, muscle atrophy, fat loss, body temperature decrease) [2]: alleviate the weight loss, muscle atrophy, fat degradation and body temperature decrease; body weight with tumor vs C26 tumor model group ([2]; end of experiment, p<0.01): higher than those in the C26 tumor model group; body weight without tumor vs C26 tumor model group ([2]; end of experiment, p<0.01): higher than those in the C26 tumor model group; food intake ([2]; vs C26 tumor model group): higher food intake than the C26 tumor model group; tumor volume / growth of C26 tumors ([2]; vs C26 tumor model group): no significant inhibitory effect; epididymal fat mass [2, 7]: significantly increase the epididymal fat mass; gastrocnemius muscle mass [2, 7]: significantly alleviate gastrocnemius muscle atrophy; muscle grasping force [2, 7]: significantly enhance the muscle grasping force |
| CCCCCCCCCCCCCSSC(=S)N1CCCC1 [Compound 5] | 23.27% | 40.28% | – | – |
| CCCCCCCCCCCCCCSSC(=S)N1CCCC1 [Compound 6] | 20.41% | 35.98% | 33.80% | – |
| CCCCCCCCCCCCCCCCSSC(=S)N1CCCC1 [Compound 7] | 41.05% | 28.79% | 43.99% | – |
| CCCCCCCCCCCCCCCCCCSSC(=S)N1CCCC1 [Compound 8] | −1.83% | 17.41% | 6.10% | reversal of myotube atrophy (activity in words) ([1]; C26 medium-induced C2C12 myotubes): lower |
| CCCCCCCCCCCCSSC(=S)N1Cc2ccccc2C1 [Compound 9] | 12.22% | 29.24% | 60.06% | – |
| CCCCCCCCCCCCSSC(=S)N1CCc2ccccc21 [Compound 10] | 10.82% | 25.32% | 45.93% | – |
| CCCCCCCCCCCCSSC(=S)N1CCC2(COC2)C1 [Compound 11] | 42.30% | 64.65% | – | – |
| CCCCCCCCCCCCSSC(=S)N1CC2CCCCC2C1 (stereo not drawn) [Compound 12] | 20.85% | 49.43% | 66.73% | – |
| CCCCCCCCCCCCSSC(=S)N1CCC(O)C1 (stereo not drawn) [Compound 13] | 18.05% | 42.38% | – | – |
| CCCCCCCCCCCCSSC(=S)N1CCCCC1 [Compound 14] | 17.02% | 43.19% | – | – |
| CCCCCCCCCCCCSSC(=S)N1CCOCC1 [Compound 15] | 26.47% | 48.24% | – | – |
| CCCCCCCCCCCCSSC(=S)N1CCN(C)CC1 [Compound 16] | 31.39% | 46.75% | – | – |
| CCCCCCCCCCCCSSC(=S)N1CCC1 [Compound 17] | 26.34% | 53.97% | – | – |
